Reference: ChEMBL document CHEMBL3045856, “Synthesis antimicrobial and anticancer activity of N-arylmethylidene-piperazine-1-carbothiohydrazide” (Med Chem Res, 2013)

Assays:
HBL-100 [1] = assay: Anticancer activity against Homo sapiens (human) HBL100 cells after 72 hr by MTT assay; type: functional, cell-based; conditions: HBL-100, 72 h
Staphylococcus aureus = assay: Antimicrobial activity against Staphylococcus aureus NCIM 2079 assessed as growth inhibition after 24 hr by serial double dilution method; type: functional, organism-based; conditions: NCIM 2079, 24 h
Vibrio cholerae = assay: Antimicrobial activity against Vibrio cholerae assessed as growth inhibition after 24 hr by cup-plate method; type: functional, organism-based
Pseudomonas aeruginosa = assay: Antimicrobial activity against Pseudomonas aeruginosa NCIM 2967 assessed as growth inhibition after 24 hr by serial double dilution method; type: functional, organism-based; conditions: NCIM 2967, 24 h
Aspergillus niger = assay: Antimicrobial activity against Aspergillus niger assessed as growth inhibition after 24 hr by cup plate method; type: functional, organism-based
Bacillus subtilis = assay: Antimicrobial activity against Bacillus subtilis NCIM 2921 assessed as growth inhibition after 24 hr by serial double dilution method; type: functional, organism-based; conditions: NCIM 2921, 24 h
Escherichia coli = assay: Antimicrobial activity against Escherichia coli NCIM 2068 assessed as growth inhibition after 24 hr by serial double dilution method; type: functional, organism-based; conditions: NCIM 2068, 24 h
HL-60 = assay: Anticancer activity against Homo sapiens (human) HL60 cells after 48 hr by CC108 microcell counter analysis; type: functional, cell-based; conditions: HL-60, 48 h
Candida albicans = assay: Antimicrobial activity against Candida albicans assessed as growth inhibition after 24 hr by serial double dilution method; type: functional, organism-based
HBL-100 [2] = assay: Ratio of compound IC50 to methotrexate IC50 for Homo sapiens (human) HBL100 cells after 72 hr by MTT assay; type: functional

Cc1ccc(/C=N/NC(=S)N2CCNCC2)cc1
IC50 (HBL-100 [1]): 800 nM | IC50 (Staphylococcus aureus): 1660 nM | IC50 (Vibrio cholerae): 3570 nM | IC50 (Pseudomonas aeruginosa): 1700 nM | IC50 (Aspergillus niger): 3790 nM | IC50 (Bacillus subtilis; read-out: IC50): 1700 nM | IC50 (Escherichia coli): 1740 nM | IC50 (HL-60): 70 µM | IC50 (Candida albicans; read-out: IC50): 3720 nM

C/C(=N/NC(=S)N1CCNCC1)c1ccccc1
IC50 (HBL-100 [1]): 290 nM | IC50 (Staphylococcus aureus): 2070 nM | IC50 (Vibrio cholerae): 1170 nM | IC50 (Pseudomonas aeruginosa): 2110 nM | IC50 (Aspergillus niger): 3760 nM | IC50 (Bacillus subtilis; read-out: IC50): 1780 nM | IC50 (Escherichia coli): 1760 nM | IC50 (Candida albicans; read-out: IC50): 3750 nM

C/C(=N\NC(=S)N1CCNCC1)c1ccc(O)cc1
IC50 (HBL-100 [1]): 540 nM | IC50 (Staphylococcus aureus): 1580 nM | IC50 (Vibrio cholerae): 1590 nM | IC50 (Pseudomonas aeruginosa): 3510 nM | IC50 (Aspergillus niger): 3550 nM | IC50 (Bacillus subtilis; read-out: IC50): 3490 nM | IC50 (Escherichia coli): 3480 nM | IC50 (HL-60): 60 µM | IC50 (Candida albicans; read-out: IC50): 2560 nM

C/C(=N\NC(=S)N1CCNCC1)c1ccc(Cl)cc1
IC50 (HBL-100 [1]): 260 nM | IC50 (Staphylococcus aureus): 1040 nM | IC50 (Vibrio cholerae): 780 nM | IC50 (Pseudomonas aeruginosa): 710 nM | IC50 (Aspergillus niger): 3320 nM | IC50 (Bacillus subtilis; read-out: IC50): 980 nM | IC50 (Escherichia coli): 880 nM | IC50 (Candida albicans; read-out: IC50): 3370 nM

Oc1ccc(/C=N/NC(=S)N2CCNCC2)cc1
IC50 (HBL-100 [1]): 180 nM | IC50 (Staphylococcus aureus): 1700 nM | IC50 (Vibrio cholerae): 1660 nM | IC50 (Pseudomonas aeruginosa): 1630 nM | IC50 (Aspergillus niger): 1970 nM | IC50 (Bacillus subtilis; read-out: IC50): 1620 nM | IC50 (Escherichia coli): 1640 nM | IC50 (HL-60): 50 µM | IC50 (Candida albicans; read-out: IC50): 1940 nM | Ratio IC50 (HBL-100 [2]): 4.5

S=C(NN=C(c1ccccc1)c1ccccc1)N1CCNCC1
IC50 (HBL-100 [1]): 340 nM | IC50 (Staphylococcus aureus): 1330 nM | IC50 (Vibrio cholerae): 1380 nM | IC50 (Pseudomonas aeruginosa): 1440 nM | IC50 (Aspergillus niger): 1620 nM | IC50 (Bacillus subtilis; read-out: IC50): 1380 nM | IC50 (Escherichia coli): 3030 nM | IC50 (Candida albicans; read-out: IC50): 1470 nM

CN(Cc1cnc2nc(N)nc(N)c2n1)c1ccc(C(=O)N[C@@H](CCC(=O)O)C(=O)O)cc1 [METHOTREXATE]
IC50 (HBL-100 [1]): 40 nM

O=C(O)c1cn(C2CC2)c2cc(N3CCNCC3)c(F)cc2c1=O [CIPROFLOXACIN]
IC50 (Staphylococcus aureus): 1200 nM | IC50 (Vibrio cholerae): 200 nM | IC50 (Pseudomonas aeruginosa): 50 nM | IC50 (Bacillus subtilis): 4700 nM

C/C(=N\NC(=S)N1CCNCC1)c1cccc([N+](=O)[O-])c1
IC50 (HBL-100 [1]): 990 nM | IC50 (Staphylococcus aureus): 860 nM | IC50 (Vibrio cholerae): 860 nM | IC50 (Pseudomonas aeruginosa): 600 nM | IC50 (Aspergillus niger): 1560 nM | IC50 (Bacillus subtilis; read-out: IC50): 320 nM | IC50 (Escherichia coli): 570 nM | IC50 (HL-60): 62 µM | IC50 (Candida albicans; read-out: IC50): 2000 nM

S=C(N/N=C/c1ccc(Cl)cc1)N1CCNCC1
IC50 (HBL-100 [1]): 1600 nM | IC50 (Staphylococcus aureus): 540 nM | IC50 (Vibrio cholerae): 600 nM | IC50 (Pseudomonas aeruginosa): 600 nM | IC50 (Aspergillus niger): 2140 nM | IC50 (Bacillus subtilis; read-out: IC50): 130 nM | IC50 (Escherichia coli): 1520 nM | IC50 (HL-60): 69 µM | IC50 (Candida albicans; read-out: IC50): 1850 nM

COc1ccc(/C=N/NC(=S)N2CCNCC2)cc1
IC50 (HBL-100 [1]): 1620 nM | IC50 (Staphylococcus aureus): 790 nM | IC50 (Vibrio cholerae): 1530 nM | IC50 (Pseudomonas aeruginosa): 1570 nM | IC50 (Aspergillus niger): 2090 nM | IC50 (Bacillus subtilis; read-out: IC50): 660 nM | IC50 (Escherichia coli): 1590 nM | IC50 (Candida albicans; read-out: IC50): 2150 nM

S=C(N/N=C/c1ccccc1)N1CCNCC1
IC50 (HBL-100 [1]): 2410 nM | IC50 (Staphylococcus aureus): 1360 nM | IC50 (Vibrio cholerae): 2230 nM | IC50 (Pseudomonas aeruginosa): 1970 nM | IC50 (Aspergillus niger): 2210 nM | IC50 (Bacillus subtilis; read-out: IC50): 930 nM | IC50 (Escherichia coli): 3910 nM | IC50 (HL-60): 63 µM | IC50 (Candida albicans; read-out: IC50): 1850 nM

OC(Cn1cncn1)(Cn1cncn1)c1ccc(F)cc1F [FLUCONAZOLE]
IC50 (Aspergillus niger): > 10000 nM | IC50 (Candida albicans): 980 nM
